{"source": "patent US9169254B2", "about": "“Spiroimidazolone derivative” (Chugai Seiyaku Kabushiki Kaisha, priority 2009, dated 2015)"}
{"biological_target": "T1, human PTH1 receptor (Homo sapiens, UniProt Q03431)", "T1 sequence (Q03431 27-593)": "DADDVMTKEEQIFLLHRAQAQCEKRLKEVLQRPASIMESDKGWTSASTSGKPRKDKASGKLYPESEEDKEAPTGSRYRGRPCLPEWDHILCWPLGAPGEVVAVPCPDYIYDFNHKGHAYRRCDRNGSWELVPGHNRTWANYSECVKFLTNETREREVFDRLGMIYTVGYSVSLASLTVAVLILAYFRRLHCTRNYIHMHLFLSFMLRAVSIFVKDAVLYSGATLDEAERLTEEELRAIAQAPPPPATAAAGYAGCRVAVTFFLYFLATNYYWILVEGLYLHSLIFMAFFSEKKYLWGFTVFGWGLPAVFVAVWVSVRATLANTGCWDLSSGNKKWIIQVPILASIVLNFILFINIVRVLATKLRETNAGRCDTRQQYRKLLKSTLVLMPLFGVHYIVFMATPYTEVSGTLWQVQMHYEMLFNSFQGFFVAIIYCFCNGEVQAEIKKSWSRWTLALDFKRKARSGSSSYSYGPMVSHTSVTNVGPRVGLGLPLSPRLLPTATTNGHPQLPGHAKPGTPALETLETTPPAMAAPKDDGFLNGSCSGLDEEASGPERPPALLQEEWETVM", "experiment": "In vitro cAMP signal activity in HKRK-B7 cells (LLC-PK1 cells overexpressing the human PTH1 receptor)", "assay_type": "cell-based", "details": "HKRK-B7 cells; compound at 1×10^−3 M; cAMP produced as percentage of that produced by hPTH(1-34) at 100 nM", "units": {"cAMP production activity (%)": "%"}}
{"smiles": "CC(=O)Nc1cccc(C)c1/C=C/S(=O)(=O)N1CCC2(CC1)N=C(C1CCCCC1)NC2=O", "note": "[Compound 190, N-{2-[(E)-2-(2-cyclohexyl-4-oxo-1,3,8-triaza-spiro[4.5]dec-1-ene-8-sulfonyl)-vinyl]-3-methyl-phenyl}-acetamide]", "cAMP production activity (%)": 61}
{"smiles": "O=C1NC(C2CCCCC2)=NC12CCN(S(=O)(=O)/C=C/c1cccc3c1ccn3C[C@H](O)CO)CC2", "note": "[Compound 191, 2-cyclohexyl-8-{(E)-2-[1-((S)-2,3-dihydroxy-propyl)-1H-indol-4-yl]-ethenesulfonyl}-1,3,8-triaza-spiro[4.5]dec-1-en-4-one]", "cAMP production activity (%)": 57}
{"smiles": "O=C1NC(C2CCCCC2)=NC12CCN(S(=O)(=O)/C=C/c1cccc3c1ccn3CCN1CCOCC1)CC2", "note": "[Compound 192, 2-cyclohexyl-8-{(E)-2-[1-(2-morpholin-4-yl-ethyl)-1H-indol-4-yl]-ethenesulfonyl}-1,3,8-triaza-spiro[4.5]dec-1-en-4-one]", "cAMP production activity (%)": 52}
{"smiles": "CN(C)C(=O)Cn1ccc2c(/C=C/S(=O)(=O)N3CCC4(CC3)N=C(C3CCCCC3)NC4=O)cccc21", "note": "[Compound 193, 2-{4-[(E)-2-(2-cyclohexyl-4-oxo-1,3,8-triaza-spiro[4.5]dec-1-ene-8-sulfonyl)-vinyl]-indol-1-yl}-N,N-dimethyl-acetamide]", "cAMP production activity (%)": 65}
{"smiles": "CN(C)C(=O)Nc1ccc(/C=C/S(=O)(=O)N2CCC3(CC2)N=C(C2CCCCC2)NC3=O)c(C(F)(F)F)c1", "note": "[Compound 194, 3-{4-[(E)-2-(2-cyclohexyl-4-oxo-1,3,8-triaza-spiro[4.5]dec-1-ene-8-sulfonyl)-vinyl]-3-trifluoromethyl-phenyl}-1,1-dimethyl-urea]", "cAMP production activity (%)": 56}
{"smiles": "O=C(Nc1ccc(/C=C/S(=O)(=O)N2CCC3(CC2)N=C(C2CCCCC2)NC3=O)c(C(F)(F)F)c1)C1CC1", "note": "[Compound 195, cyclopropanecarboxylic acid {4-[(E)-2-(2-cyclohexyl-4-oxo-1,3,8-triaza-spiro[4.5]dec-1-ene-8-sulfonyl)-vinyl]-3-trifluoromethyl-phenyl}-amide]", "cAMP production activity (%)": 36}
{"smiles": "O=C(CO)Nc1ccc(/C=C/S(=O)(=O)N2CCC3(CC2)N=C(C2CCCCC2)NC3=O)c(C(F)(F)F)c1", "note": "[Compound 196, N-{4-[(E)-2-(2-cyclohexyl-4-oxo-1,3,8-triaza-spiro[4.5]dec-1-ene-8-sulfonyl)-vinyl]-3-trifluoromethyl-phenyl}-2-hydroxy-acetamide]", "cAMP production activity (%)": 66}
{"smiles": "COC(=O)Nc1ccc(C)c(/C=C/S(=O)(=O)N2CCC3(CC2)N=C(C2CCCCC2)NC3=O)c1", "note": "[Compound 197, {3-[(E)-2-(2-cyclohexyl-4-oxo-1,3,8-triaza-spiro[4.5]dec-1-ene-8-sulfonyl)-vinyl]-4-methyl-phenyl}-carbamic acid methyl ester]", "cAMP production activity (%)": 41}
{"smiles": "O=C(NCCO)Nc1ccc(/C=C/S(=O)(=O)N2CCC3(CC2)N=C(C2CCCCC2)NC3=O)c(C(F)(F)F)c1", "note": "[Compound 198, 1-{4-[(E)-2-(2-cyclohexyl-4-oxo-1,3,8-triaza-spiro[4.5]dec-1-ene-8-sulfonyl)-vinyl]-3-trifluoromethyl-phenyl}-3-(2-hydroxy-ethyl)-urea]", "cAMP production activity (%)": 31}
{"smiles": "Cc1ccc(NCCO)cc1/C=C/S(=O)(=O)N1CCC2(CC1)N=C(C1CCCCC1)NC2=O", "note": "[Compound 199, 2-cyclohexyl-8-{(E)-2-[5-(2-hydroxy-ethylamino)-2-methyl-phenyl]-ethenesulfonyl}-1,3,8-triaza-spiro[4.5]dec-1-en-4-one]", "cAMP production activity (%)": 46}
{"smiles": "Cc1cccc(NCCO)c1/C=C/S(=O)(=O)N1CCC2(CC1)N=C(C1CCCCC1)NC2=O", "note": "[Compound 200, 2-cyclohexyl-8-{(E)-2-[2-(2-hydroxy-ethylamino)-6-methyl-phenyl]-ethenesulfonyl}-1,3,8-triaza-spiro[4.5]dec-1-en-4-one]", "cAMP production activity (%)": 37}
{"smiles": "CN(C)C(=O)CNc1ccc(/C=C/S(=O)(=O)N2CCC3(CC2)N=C(C2CCCCC2)NC3=O)c(C(F)(F)F)c1", "note": "[Compound 201, 2-{4-[(E)-2-(2-cyclohexyl-4-oxo-1,3,8-triaza-spiro[4.5]dec-1-ene-8-sulfonyl)-vinyl]-3-trifluoromethyl-phenylamino}-N,N-dimethyl-acetamide]", "cAMP production activity (%)": 56}
{"smiles": "CC1(C)OC[C@H](Cn2cc(F)c3c(/C=C/S(=O)(=O)N4CCC5(CC4)N=C(C4CCCCC4)NC5=O)cccc32)O1", "note": "[Compound 202, 2-cyclohexyl-8-{(E)-2-[1-((S)-2,2-dimethyl-[1,3]dioxolan-4-ylmethyl)-3-fluoro-1H-indol-4-yl]-ethenesulfonyl}-1,3,8-triaza-spiro[4.5]dec-1-en-4-one]", "cAMP production activity (%)": 27}
{"smiles": "Cc1cc(C(=O)N2CC(F)(F)C(F)(F)C2)ccc1/C=C/S(=O)(=O)N1CCC2(CC1)N=C(C1CCCCC1)NC2=O", "note": "[Compound 203, 2-cyclohexyl-8-{(E)-2-[2-methyl-4-(3,3,4,4-tetrafluoro-pyrrolidine-1-carbonyl)-phenyl]-ethenesulfonyl}-1,3,8-triaza-spiro[4.5]dec-1-en-4-one]", "cAMP production activity (%)": 25}
{"smiles": "CC(=O)Nc1cc(C)c(/C=C/S(=O)(=O)N2CCC3(CC2)N=C(C2CCCCC2)NC3=O)c(C)c1", "note": "[Compound 204, N-{4-[(E)-2-(2-Cyclohexyl-4-oxo-1,3,8-triaza-spiro[4.5]dec-1-ene-8-sulfonyl)-vinyl]-3,5-dimethyl-phenyl}-acetamide]", "cAMP production activity (%)": 110}
{"smiles": "CC(C)(C)OC(=O)NCc1ccc(/C=C/S(=O)(=O)N2CCC3(CC2)N=C(C2CCCCC2)NC3=O)c(C(F)(F)F)c1", "note": "[Compound 205, {4-[(E)-2-(2-cyclohexyl-4-oxo-1,3,8-triaza-spiro[4.5]dec-1-ene-8-sulfonyl)-vinyl]-3-trifluoromethyl-benzyl}-carbamic acid tert-butyl ester]", "cAMP production activity (%)": 47}
{"smiles": "Cc1cc(OC[C@H](O)CO)cc(C)c1/C=C/S(=O)(=O)N1CCC2(CC1)N=C(C1CCCCC1)NC2=O", "note": "[Compound 206, 2-cyclohexyl-8-{(E)-2-[4-((R)-2,3-dihydroxy-propoxy)-2,6-dimethyl-phenyl]-ethenesulfonyl}-1,3,8-triaza-spiro[4.5]dec-1-en-4-one]", "cAMP production activity (%)": 70}
{"smiles": "Cc1cc(NCC2CNC(=O)O2)ccc1/C=C/S(=O)(=O)N1CCC2(CC1)N=C(C1CCCCC1)NC2=O", "note": "(stereo not shown) [Compound 207, 2-cyclohexyl-8-((E)-2-{2-methyl-4-[(2-oxo-oxazolidin-5-ylmethyl)-amino]-phenyl}-ethenesulfonyl)-1,3,8-triaza-spiro[4.5]dec-1-en-4-one]", "cAMP production activity (%)": 36}
{"smiles": "CN(C)CCNC(=O)Cc1ccc(/C=C/S(=O)(=O)N2CCC3(CC2)N=C(C2CCCCC2)NC3=O)cc1", "note": "[Compound 208, 2-{4-[(E)-2-(2-cyclohexyl-4-oxo-1,3,8-triaza-spiro[4.5]dec-1-ene-8-sulfonyl)-vinyl]-phenyl}-N-(2-dimethylamino-ethyl)-acetamide]", "cAMP production activity (%)": 22}
{"smiles": "CC1CCC(C2=NC3(CCN(S(=O)(=O)/C=C/c4cccc(C#N)c4)CC3)C(=O)N2)CC1", "note": "(stereo not shown) [Compound 209, 3-{(E)-2-[2-(4-Methyl-cyclohexyl)-4-oxo-1,3,8-triaza-spiro[4.5]dec-1-ene-8-sulfonyl]-vinyl}-benzonitrile]", "cAMP production activity (%)": 24}
{"smiles": "Cc1cc(OCCC(O)CO)ccc1/C=C/S(=O)(=O)N1CCC2(CC1)N=C(c1cccc(C(F)(F)F)c1)NC2=O", "note": "(stereo not shown) [Compound 210, 8-{(E)-2-[4-(3,4-Dihydroxy-butoxy)-2-methyl-phenyl]-ethenesulfonyl}-2-(3-trifluoromethyl-phenyl)-1,3,8-triaza-spiro[4.5]dec-1-en-4-one]", "cAMP production activity (%)": 79}
{"smiles": "O=C1NC(c2cccc(C(F)(F)F)c2)=NC12CCN(S(=O)(=O)/C=C/c1ccc(NCCO)cc1C(F)(F)F)CC2", "note": "[Compound 211, 8-{(E)-2-[4-(2-hydroxy-ethylamino)-2-trifluoromethyl-phenyl]-ethenesulfonyl}-2-(3-trifluoromethyl-phenyl)-1,3,8-triaza-spiro[4.5]dec-1-en-4-one]", "cAMP production activity (%)": 60}
{"smiles": "Cc1cc(C(=O)N2CCCC2)ccc1/C=C/S(=O)(=O)N1CCC2(CC1)N=C(c1cccc(C(F)(F)F)c1)NC2=O", "note": "[Compound 212, 8-{(E)-2-[2-methyl-4-(pyrrolidine-1-carbonyl)-phenyl]-ethenesulfonyl}-2-(3-trifluoromethyl-phenyl)-1,3,8-triaza-spiro[4.5]dec-1-en-4-one]", "cAMP production activity (%)": 59}
{"smiles": "Cc1cc(S(N)(=O)=O)ccc1/C=C/S(=O)(=O)N1CCC2(CC1)N=C(c1cccc(C(F)(F)F)c1)NC2=O", "note": "[Compound 213, 3-methyl-4-{(E)-2-[4-oxo-2-(3-trifluoromethyl-phenyl)-1,3,8-triaza-spiro[4.5]dec-1-ene-8-sulfonyl]-vinyl}-benzenesulfonamide]", "cAMP production activity (%)": 74}
{"smiles": "Cc1cc(C(=O)N(C)CCO)ccc1/C=C/S(=O)(=O)N1CCC2(CC1)N=C(c1cccc(C(F)(F)F)c1)NC2=O", "note": "[Compound 214, N-(2-hydroxy-ethyl)-3,N-dimethyl-4-{(E)-2-[4-oxo-2-(3-trifluoromethyl-phenyl)-1,3,8-triaza-spiro[4.5]dec-1-ene-8-sulfonyl]-vinyl}-benzamide]", "cAMP production activity (%)": 84}
